Measured values taken from patent US20120077836A1, “METHODS OF ADMINISTERING (4AR,10AR)-1-N-PROPYL-1,2,3,4,4A,5,10,10A-OCTAHYDROBENZO [G] QUINOLINE-6,7-DIOL AND RELATED COMPOUNDS ACROSS THE ORAL MUCOSA, THE NASAL MUCOSA OR THE SKIN AND PHARMACEUTICAL COMPOSITIONS THEREOF” (priority 2009, published 2012).
Where a name gives a salt, the structure may show the parent alone. Read-outs that look alike come from different tables or passages of the source.

How the values were obtained:
[1] = test system: rats with unilateral 6-OHDA lesions; experiment: Rotation response in 6-OHDA rats after buccal delivery; format: in vivo, rat
[2] = molecular target: T1, human D2 receptor (Homo sapiens, UniProt P14416); experiment: D2 cAMP assay; format: cell-based
T1 construct: expressed in transfected cells; host or cells: CHO cells
Experimental: The ability of the compounds to either stimulate or inhibit the D2 receptor mediated inhibition of cAMP formation in CHO cells transfected with the human D2 receptor was measured as follows. Cells were seeded in 96 well plates at a concentration of 8000 cells/well 3 days prior to the experiment. On the day of the experiment the cells were washed once in preheated G buffer (1 mM MgCl2, 0.9 mM CaCl2, 1 mM IBMX in PBS) and the assay was initiated by addition of 100 micro-1 of a mixture of 1 micro-M quinpirole, 10 microM forskolin and test compound in G buffer (antagonism) or 10 micro-M forskolin and test compound in G buffer (agonism).

[3] = test system: unilaterally lesioned 6-OHDA rats; format: in vivo, rat
Experimental: Animals were generated as described under example 7. Four groups of animals were dosed with various doses of compound 10 (group 1, 1 microg/kg; group 2, 10 microg/kg; group 3, 25 microg/kg; group 4, 50 microg/kg). In all cases, compound 10 was administered in one of the nostrils in a volume of 20 microL of a solution of the appropriate concentration in 20% ethanol in 0.7% aqueous sodium chloride containing 0.02% ascorbic acid. The drug solution was applied to one of the nostrils and the nose was gently massaged to ensure distribution of the administered solution over the nasal mucosa. The degree of rotation behaviour of the animals was recorded over the next 3 hours.

[4] = test system: rats with unilateral 6-OHDA lesions; experiment: Dyskinesia model with naive 6-OHDA rats (AIMS)
[5] = test system: rats with unilateral 6-OHDA lesions; experiment: Rotation response in 6-OHDA rats after transdermal delivery; format: in vivo, rat
Experimental: We have used rats with unilateral 6-OHDA lesions to assess compound 10 for its ability to induce rotation after transdermal administration [for details on the model, see the description under example 7]. Three groups of six animals were treated with different doses of compound 10 administered transdermally. Compound 10 (24 mg) was suspended in a mixture of 0.02% ascorbic acid and 20% ethanol in saline (9 mL); the resulting suspension was diluted with dimethyl sulfoxide (0.45 mL). The appropriate amount of this formulation was applied to the ears of the animals. The ears were rubbed gently before the rotation response of the animals was assessed over 3 h. […]

[6] = test system: MPTP/AMPT mouse model; experiment: Superiority model, hypomotility in the MPTP/AMPT mouse model; format: in vivo; conditions: for activity count (0.5-1.5 h): AMPT 250 mg/kg SC
Experimental: MPTP (1-methyl-4-phenyl-1,2,3,6-tetrahydropyridine) is a neurotoxin that causes permanent symptoms of Parkinson's disease by killing certain neurons in the substantia nigra of the brain. It is used to study the disease in monkeys and mice. […] Various compounds (all dosed subcutaneously) were tested for their ability to reverse the motility deficits produced in this model.

[7] = test system: 6-OHDA rats; experiment: Reversal of L-DOPA-induced dyskinesias in 6-OHDA rats (AIMS); format: in vivo, rat
From the text: Animals were observed on Days 1, 3 and 5 and AIMS were scored. The day 5 scores were then used to separate the animals into three groups of 6 animals each. Group 1 continued with daily L-DOPA treatment. […] Treatment continued daily for 10 days and the amount of dyskinesia was scored on days 1, 5, 9 and 10.

[8] = molecular target: T2, human recombinant D1 receptor (Homo sapiens, UniProt P21728); experiment: D1 cAMP assay; format: cell-based
T2 construct: expressed in transfected cells
Experimental: The ability of the compounds to either stimulate or inhibit the D1 receptor mediated cAMP formation in CHO cells stably expressing the human recombinant D1 receptor was measured as follows. Cells were seeded in 96-well plates at a concentration of 11000 cells/well 3 days prior to the experiment.

[9] = test system: rats with unilateral 6-OHDA lesions; experiment: D1/D2 dissection, rotation response in rats with unilateral 6-OHDA lesions; format: in vivo, rat
From the text: Rats weighing 200-250 g were subjected to unilateral 6-OHDA lesions. […] Nemonapride is a D2 antagonist that blocks the D2 receptors, therefore any observed rotations would be dependent upon activity at the D1 receptors.

[10] = test system: reserpinesed rats; experiment: Reversal of reserpine-induced hypomotility in rats; format: in vivo, rat; conditions: for activity count: reserpine 5 mg/kg SC 23-24 h before, over 3 hours
Experimental: Rats weighing ca. 200 g were treated with reserpine (5 mg/kg subcutaneously as a solution in 20% aqueous solutol for which pH was adjusted to 4 with methanesulfonic acid). […] Group 1: treated with 20% ethanol in 0.7% aqueous sodium chloride subcutaneously.

[11] = read-out: intrinsic activity (efficacy)

T1 sequence (P14416 whole entry): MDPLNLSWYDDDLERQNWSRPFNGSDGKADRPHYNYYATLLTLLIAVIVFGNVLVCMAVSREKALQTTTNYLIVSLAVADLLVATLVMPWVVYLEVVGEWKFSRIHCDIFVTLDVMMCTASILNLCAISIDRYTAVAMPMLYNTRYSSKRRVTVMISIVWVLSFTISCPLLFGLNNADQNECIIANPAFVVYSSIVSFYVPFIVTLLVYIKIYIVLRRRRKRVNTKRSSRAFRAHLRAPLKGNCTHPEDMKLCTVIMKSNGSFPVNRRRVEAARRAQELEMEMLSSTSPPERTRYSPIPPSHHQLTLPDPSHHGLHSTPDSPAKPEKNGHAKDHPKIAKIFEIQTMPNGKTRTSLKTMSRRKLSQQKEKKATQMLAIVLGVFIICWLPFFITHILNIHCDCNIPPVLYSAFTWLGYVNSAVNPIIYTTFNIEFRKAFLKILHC
T2 sequence (P21728 whole entry): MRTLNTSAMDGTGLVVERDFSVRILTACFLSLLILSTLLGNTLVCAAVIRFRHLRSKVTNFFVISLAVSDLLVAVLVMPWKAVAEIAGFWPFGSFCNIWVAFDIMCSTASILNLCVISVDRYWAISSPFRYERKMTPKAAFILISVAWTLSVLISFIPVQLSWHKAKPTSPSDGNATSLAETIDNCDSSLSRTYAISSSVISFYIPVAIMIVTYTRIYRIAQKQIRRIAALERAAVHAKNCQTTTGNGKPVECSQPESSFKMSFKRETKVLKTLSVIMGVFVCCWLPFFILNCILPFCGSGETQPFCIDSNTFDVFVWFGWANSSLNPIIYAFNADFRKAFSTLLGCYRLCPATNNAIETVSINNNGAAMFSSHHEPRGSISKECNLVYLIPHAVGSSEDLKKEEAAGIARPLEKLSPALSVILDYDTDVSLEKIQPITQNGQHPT

CCCN1CCC[C@@H]2Cc3c(ccc(O)c3O)C[C@H]21 [compound 10, (4aR,10aR)-1-n-Propyl-1,2,3,4,4a,5,10,10a-octahydro-benzo[g]quinoline-6,7-diol hydrobromide]
mean number of rotations over 3 h ([1]; 0.1 mg/kg buccally): 1203 | induction of rotation ([1]; apomorphine subcutaneous, compound 10 buccal): induced circling behavior | EC50 [2]: 0.11 nM | Emax [2, 11]: 100% | mean number of rotations (0-3 h) ([3]; group 1, intranasal 1 microg/kg): 401 | mean number of rotations (0-3 h) ([3]; group 2, intranasal 10 microg/kg): 691 | mean number of rotations (0-3 h) ([3]; group 3, intranasal 25 microg/kg): 1286 | mean number of rotations (0-3 h) ([3]; group 4, intranasal 50 microg/kg): 2122 | mean AIM score (day 19) ([4]; group 1: compound 10 0.0013 mg/kg SC days 1-14, then compound 10 0.0013 mg/kg SC days 15-19): 25 | mean AIM score (day 19) ([4]; group 2: L-DOPA/Benserazide 6/15 mg/kg SC days 1-14, then compound 10 0.0013 mg/kg SC days 15-19): 18 | mean AIM score (day 19) ([4]; group 3: apomorphine 1 mg/kg SC days 1-14, then compound 10 0.0013 mg/kg SC days 15-19): 39 | dyskinesia score (AIMS) ([4]; once daily SC, scored days 1-12): about 30 | mean number of rotations over 3 h ([5]; 0.127 mg/kg transdermally (ears)): 482 | mean number of rotations over 3 h ([5]; 0.254 mg/kg transdermally (ears)): 837 | mean number of rotations over 3 h ([5]; 0.381 mg/kg transdermally (ears)): 1448 | induction of circling behavior ([5]; transdermal delivery, three dose groups): induced circling behavior in all three groups | reversal of motility deficits ([6]; MPTP/AMPT mice, all dosed subcutaneously): restored locomotion in the mice in a dose-dependent manner | activity count (0.5-1.5 h) ([6]; Table 4c, 0.003 mg/kg SC, controls: vehicle 405, AMPT/vehicle 12): 8 | activity count (0.5-1.5 h) ([6]; Table 4c, 0.01 mg/kg SC): 228 | activity count (0.5-1.5 h) ([6]; Table 4c, 0.03 mg/kg SC): 440 | activity count (0.5-1.5 h) ([6]; Table 4e direct comparison, apomorphine 1 mg/kg SC, pramipexole 1 mg/kg SC, compound 10 0.030 mg/kg SC, controls: vehicle 509, AMPT/vehicle 2): 690 | dyskinesias versus other groups (two-way repeated measures ANOVA) ([7]; L-DOPA-primed 6-OHDA rats, 10 days treatment): significantly fewer dyskinesias than both the pramipexole group and the L-DOPA/Benserazide group | mean AIM score (days 1, 5, 9, 10) ([7]; after 7 days L-DOPA/Benserazide priming, once daily days 1-10: L-DOPA/Benserazide 6/15 mg/kg SC, compound 10 0.0013 mg/kg SC, pramipexole […] SC): 44 | EC50 [8]: 15.5 nM | Emax [8, 11]: 100% | MED (minimum effective dose to induce rotation) ([9]; dosed SC, 6-OHDA rats): 0.65 µg/kg | MEDNemonapride (MED to overcome Nemonapride block) ([9]; dosed SC, 6-OHDA rats, * = rotations could not be blocked by SCH23390): 1.3 µg/kg | mixed D1/D2 ratio ([9]; subcutaneous, 6-OHDA rat rotation model): about 2 | reversal of reserpine-induced hypomotility ([10]; administered buccally): reversed the hypomotility | reversal of reserpine-induced hypomotility ([10]; administered subcutaneously): reversed the reserpine-induced hypomotility | activity count ([10]; 0.05 mg/kg buccally): 378 | activity count ([10]; 0.10 mg/kg buccally): 533 | activity count ([10]; apomorphine 1 mg/kg SC, compound 10 0.01 mg/kg SC, controls: vehicle 486, reserpine/vehicle 17): 308
